Literature values as cited in article PMC3262105 (Journal of the American Chemical Society, 2012).

Columns and labels:
[1] = tested on: SEVI- and semen-mediated enhancement of HIV infection in T cells
cervical cells [2] = conditions: concentration 10 times the IC50 for efficacy
cervical cells [3] = conditions: concentration 10 times the IC50 for efficacy; remark: listed apart in the source

## Cc1ccc2nc(-c3ccc(NCCOCCOCCOCCOCCOCCO)cc3)sc2c1 [BTA-EG6]
[1]
  concentration required to nearly completely neutralize the effects of SEVI on HIV-1 infection: 44 µM
[1]; read-out: IC50 for reducing SEVI-enhanced infection of HIV, T cells
  IC50: 13 µM
Cervical cells [2]
  toxicity to cervical cells: not toxic
Cervical cells [3]
  pro-inflammatory activity: did not exhibit any pro-inflammatory activity
